The subject of assay [1] is H460 human non-small cell lung cancer xenograft. Briefly: In vivo antitumor efficacy, H460 xenograft. To be noted: for Tumor inhibition rate %: by tumor weight. More on the design: species or system BALB/c immunodeficient nude mice. The text has this: To evaluate the in vivo anticancer efficacy of COMPOUND O, H460 human non-small cell lung Cancer xenograft models in immunodeficient nude mice was used. The cell line and mice were maintained in the Pharmacology Lab of ACEA Bio (Hangzhou) CO., Ltd. The BALB/c immunodeficient nude mice were purchased from Shanghai SLAC Laboratory Animal, certification number: SCXKA (Shanghai) 2007-0005. The mouse weight was between 19±2 g. Only female mice were used in this study. The numbers of animals tested were as follows: 7 for each dose group, 7 for positive control group and 7 for negative control group.
Test Control. For negative control, each mouse was administered orally with the solvent only having the same volume and same concentration as those used in COMPOUND O test, 120 mg/kg once every other day (qod) for 25 days. For positive control, an oral anticancer compound, Etoposide was administered orally at 30 mg/kg qod for 25 days.
Preparation an Administration of Test Compounds. COMPOUND O was dissolved in 25% phospholipid (S75) and 75% polyvinylpyrrolidone (PL-PVP) then further diluted to 8 mg/ml in 0.9% NaCl aqueous solution. Each mouse was administered orally with the compound solution. Different dosages of COMPOUND O (120 mg/kg qod and 160 mg/kg q3d) were used in the study.
Preparation of tumor cells for transplantation and determination of compound efficacy. To prepare the cancer cells for H460 human non-small cell lung cancer xenograft model, the log phase growing cell in the flask were trypsinized and cells were re-suspended in PBS (pH 7.2) at 1.5×10^7 cells/ml. The cell suspension (3×10^6 cells) was subcutaneously injected into the auxiliary region (right-side) of each mouse. After the inoculated cancer cells grew to a tumor of certain size (150 mm^3) in the nude mice, the mice were randomized into different dosing groups and subjected to compound treatment. Between 3-4 weeks after the first dosing, mice were sacrificed and the transplanted tumors were removed from experimental mice. Each removed solid tumor was weighed; the tumor inhibition rate in each dosage group was calculated according to equation (1) in Example 1.
All used materials including animal food, animal cage, supporting materials and apparatus contacted by animals, were high-pressure sterilized. Nude mice were maintained in laminar flow shelves under SPF condition. After tumor transplantation, mouse weight and tumor size in each compound dosage group were dynamically monitored and plotted. The tumor size was determined by measuring the major axis (a) and minor axis (b) of the tumor, and tumor volume was calculated according to the formula (2) in Example 1.

For assay [2], the system named is SW620 cells (human colon cancer cell line). Briefly: Inhibition of cell proliferation, xCelligence cell index. In kind it is cell-based. The settings on record: SW-620, 72 hr post compound treatment, read-out: calculated IC50. The text has this: The biological activity of compounds disclosed herein was monitored and profiled using the Real-Time Cell Electronic Sensing (RT-CES®) system from ACEA Biosciences, Inc. The RT-CES system utilizes cell-substrate impedance technology to monitor cellular behavior inside tissue culture wells in a microtiter plate format. The technology features in the integration of molecular and cell biology with microelectronics and is based on the electronic detection of biological assay process. […]
For measurement of cell-substrate or cell-electrode impedance using RT-CES technology, microelectrodes having appropriate geometries are fabricated onto the bottom surfaces of microtiter plate or similar device, facing into the wells. […] When there are changes to the biological status of the cells analogue electronic readout signals are measured automatically and in real time, and are converted to digital signals for processing and for analysis. In a RT-CES system, a cell index (arbitrary representation of change in impedance) is automatically derived and provided based on measured electrode impedance values. […]
To quantify cell status based on the measured cell-electrode impedance, a parameter termed Cell Index is derived. Cell Index is a quantitative measure of the status of the cells in an electrode-containing well. […]

pIC50: −log10 of the molar value. Structures can show the parent of a compound that is named as a salt.

For `COc1cc([C@@H]2c3cc4c(cc3[C@@H](O[C@@H]3O[C@@H]5CO[C@@H](C)O[C@H]5[C@H](O)[C@H]3O)[C@H]3COC(=O)[C@H]23)OCO4)cc(OC)c1O` [Etoposide, reference compound], in assay [1] (30 mg/kg ig × 13 qod), the “TV inhibition rate % T/C” value turned out to be 50.4%, the “Tumor volume (mm^3) End” value was 775.43 ± 302.62 mm^3, the “Tumor volume (mm^3) Start” value came out at 163.79 ± 57.22 mm^3 and the “Tumor weight (g) x ± SD” value was 0.76 ± 0.29 g. Further, the “Tumor inhibition rate %” value in assay [1] (30 mg/kg ig × 13 qod) is listed as 48.4%.
As a reminder, the pIC50 is the IC50 on a negative log10 scale, so that one unit is a factor of ten. In the case of `CC(=O)O[C@H]1C(=O)[C@@]2(C)[C@H]([C@H](OC(=O)c3ccccc3)[C@]3(O)C[C@H](OC(=O)[C@H](O)[C@@H](NC(=O)c4ccccc4)c4ccccc4)C(C)=C1C3(C)C)[C@]1(OC(C)=O)CO[C@@H]1C[C@@H]2O` [paclitaxel], in assay [2], the pIC50 was 9.00.
With `CCc1ccc(Nc2nc(-c3c(C)nc4sccn34)cs2)cc1` [COMPOUND O, 2-(4-ethylphenyl)amino-4-(6-methylimidazo[2,1-b]thiazol-5-yl)-thiazole monohydrobromide], the negative-log IC50 (pIC50) in assay [2] was 8.58. Moreover, in assay [1] (120 mg/kg ig × 11 qod), the “TV inhibition rate % T/C” value amounted to 47.0%, the “Tumor volume (mm^3) End” value is 745.28 ± 245.55 mm^3, the “Tumor volume (mm^3) Start” value is 162.09 ± 53.94 mm^3 and the “Tumor weight (g) x ± SD” value amounted to 0.81 ± 0.29 g. Further, in assay [1] (120 mg/kg ig × 11 qod), the “Tumor inhibition rate %” value is recorded as 47.1%. Further, in assay [1] (160 mg/kg ig × 9 q3d), the “TV inhibition rate % T/C” value turned out to be 69.9%, the “Tumor volume (mm^3) End” value amounted to 524.67 ± 141.77 mm^3, the “Tumor volume (mm^3) Start” value is reported as 171.44 ± 53.63 mm^3 and the “Tumor weight (g) x ± SD” value is on record as 0.46 ± 0.13 g. Besides, the “Tumor inhibition rate %” value in assay [1] (160 mg/kg ig × 9 q3d) came out at 31.3%.

The values are drawn from patent US20110207751A1, “HETEROCYCLIC COMPOUNDS AND USES AS ANTICANCER AGENTS” (priority 2010, published 2011).
